T1: CtCHAD (Chlorobaculum tepidum, UniProt Q8KE09)
T1 construct: gene CT0884; CHAD domain, residues 208-522; N-terminal 6xHis tag cleaved by TEV; E. coli BL21 (DE3) RIL; 36,194 D monomer; mainly dimer, some tetramer in solution
T1 sequence (Q8KE09 208-522): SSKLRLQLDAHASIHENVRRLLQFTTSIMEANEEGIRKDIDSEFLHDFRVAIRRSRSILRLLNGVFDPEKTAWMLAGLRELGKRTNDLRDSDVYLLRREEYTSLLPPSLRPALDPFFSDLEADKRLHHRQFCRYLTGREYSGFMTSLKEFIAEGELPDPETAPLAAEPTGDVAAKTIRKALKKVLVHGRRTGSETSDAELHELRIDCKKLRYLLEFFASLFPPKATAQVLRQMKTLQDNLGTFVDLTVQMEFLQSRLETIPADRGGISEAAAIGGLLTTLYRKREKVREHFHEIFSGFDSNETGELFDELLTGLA

T2: ygiF-full length 1–433 (FL) (Escherichia coli, UniProt P30871)
T2 sequence (P30871 1-433): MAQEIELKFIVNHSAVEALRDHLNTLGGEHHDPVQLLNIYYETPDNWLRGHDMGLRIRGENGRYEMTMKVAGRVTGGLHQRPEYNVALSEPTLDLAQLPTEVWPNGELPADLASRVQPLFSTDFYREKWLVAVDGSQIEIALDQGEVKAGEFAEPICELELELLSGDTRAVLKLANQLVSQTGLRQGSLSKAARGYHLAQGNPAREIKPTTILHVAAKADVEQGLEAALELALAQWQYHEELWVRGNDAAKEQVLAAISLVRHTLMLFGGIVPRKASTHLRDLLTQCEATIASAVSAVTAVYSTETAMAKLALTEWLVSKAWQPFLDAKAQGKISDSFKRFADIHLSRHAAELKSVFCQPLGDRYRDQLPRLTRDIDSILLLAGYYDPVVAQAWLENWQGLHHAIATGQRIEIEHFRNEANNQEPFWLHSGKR

T3: ygiF-TTM 1–200 (TTM) (Escherichia coli, UniProt P30871)
T3 sequence (P30871 1-200): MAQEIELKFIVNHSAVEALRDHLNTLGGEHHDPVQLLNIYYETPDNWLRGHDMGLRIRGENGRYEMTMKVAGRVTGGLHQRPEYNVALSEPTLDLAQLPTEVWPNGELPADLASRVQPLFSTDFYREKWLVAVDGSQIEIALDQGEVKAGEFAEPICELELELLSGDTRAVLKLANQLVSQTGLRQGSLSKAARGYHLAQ


Assays:
[1] = target: T1, CtCHAD; test: grating-coupled interferometry competition against polyP-coated chip; type: binding
[2] = target: T2, ygiF-full length 1–433 (FL); test: malachite green phosphate release; type: biochemical; settings: 10 nM enzyme, 500 μM substrate, 20 mM Bis-Tris propane pH 8.5, 150 mM NaCl, 5 mM MgCl2, 37°C, 7 min
[3] = target: T3, ygiF-TTM 1–200 (TTM); test: malachite green phosphate release; type: biochemical; settings: 10 nM enzyme, 500 μM substrate, 20 mM Bis-Tris propane pH 8.5, 150 mM NaCl, 5 mM MgCl2, 37°C, 7 min
[4] = target: the molecule itself; test: SEC; analytical size-exclusion chromatography, Superdex 200 Increase 10/300 GL, buffer A (50 mM PBS, pH 7.5, 500 mM NaCl), 500 μl of protein at 0.5 mg/ml, no polyP
[5] = target: the molecule itself; test: SEC-RALS (size-exclusion chromatography with right-angle light scattering); apo CtCHAD, 2 mg/ml, 20 mM Hepes pH 7.5, 150 mM NaCl, Superdex 200 10/300 increase, 35°C
[6] = target: the molecule itself; test: SEC-RALS (size-exclusion chromatography with right-angle light scattering); CtCHAD incubated with 1 mM polyP (average chain length ∼30 Pi units) for 3 h at room temperature, 2 mg/ml, 20 mM Hepes pH 7.5, 150 mM NaCl, Superdex 200 10/300 increase, 35°C

Molecule | IC50 [1] [nM] | malachite green phosphate release [2] | malachite green phosphate release [3] | stoichiometry N [4] | stoichiometry N [5] | stoichiometry N [6]
O=P(O)(O)OP(=O)(O)OP(=O)(O)O [tripolyphosphate] | ~200 | CHAD domain stimulated the previously reported tripolyphosphatase activity of ygiF | The substrates tested were ATP (Merck), sodium tripolyphosphate (Merck), and polyP | – | – | –
CtCHAD^208–522 (CHAD domain–containing protein from Chlorobium tepidum) (domain or fragment, UniProt Q8KE09 208-522, looked up, CHAD domain of the C. tepidum CHAD domain–containing protein, UniProt Q8KE09, residues 208-522; synthetic gene; not shown: His6, N-terminal, cleaved) SSKLRLQLDAHASIHENVRRLLQFTTSIMEANEEGIRKDIDSEFLHDFRVAIRRSRSILRLLNGVFDPEKTAWMLAGLRELGKRTNDLRDSDVYLLRREEYTSLLPPSLRPALDPFFSDLEADKRLHHRQFCRYLTGREYSGFMTSLKEFIAEGELPDPETAPLAAEPTGDVAAKTIRKALKKVLVHGRRTGSETSDAELHELRIDCKKLRYLLEFFASLFPPKATAQVLRQMKTLQDNLGTFVDLTVQMEFLQSRLETIPADRGGISEAAAIGGLLTTLYRKREKVREHFHEIFSGFDSNETGELFDELLTGLA | – | – | – | 2 | 4 | ≥ 4
